Test results as given in patent publication US20250205268A1, “TREATMENT OF VIRUSES WITH ANTIVIRAL NUCLEOSIDES” (priority 2021, published 2025).
Values joined by “and” are separate entries in the source; they are usually repeats but may differ in a detail not shown here. Equal values may be shown once. Read-outs that look alike come from different tables or passages of the source.

Assays:
[1] = type: in vivo; conditions: nonclinical studies
[2] = system: SARS-CoV-2 RNA; test: Phase 2a trial: RT-PCR for SARS-CoV-2 RNA in nasopharyngeal swabs (Example 2); type: in vivo
[3] = system: infectious SARS-CoV-2 virus; type: in vivo
[4] = system: SARS-CoV-2; type: in vivo; conditions: final MITT

CC(C)C(=O)OC[C@H]1O[C@@H](n2ccc(NO)nc2=O)[C@H](O)[C@@H]1O [Compound A, {(2R,3S,4R,5R)-3,4-dihydroxy-5-[4-(hydroxyimino)-2-oxo-3,4-dihydropyrimidin-1 (2H)-yl]oxolan-2-yl}methyl 2-methylpropanoate]
pancreatic toxicity (pathology changes in the pancreas) [1]: No test-article related pathology changes in the pancreas | Change from baseline in SARS-CoV-2 viral load, least squares mean ([2]; 200 mg, Day 3): −0.783 log10 copies/ml | Difference in least squares mean viral load change vs placebo ([2]; 200 mg, Day 3): 0.064 log10 copies/ml | Change from baseline in SARS-CoV-2 viral load, least squares mean ([2]; 200 mg, Day 5): −1.471 log10 copies/ml | Difference in least squares mean viral load change vs placebo ([2]; 200 mg, Day 5): −0.150 log10 copies/ml | Change from baseline in SARS-CoV-2 viral load, least squares mean ([2]; 200 mg, Day 7): −2.028 log10 copies/ml | Difference in least squares mean viral load change vs placebo ([2]; 200 mg, Day 7): −0.076 log10 copies/ml | Change from baseline in SARS-CoV-2 viral load, least squares mean ([2]; 200 mg, Day 14): −2.884 log10 copies/ml | Difference in least squares mean viral load change vs placebo ([2]; 200 mg, Day 14): −0.019 log10 copies/ml | Change from baseline in SARS-CoV-2 viral load, least squares mean ([2]; 400 mg, Day 3): −0.941 log10 copies/ml | Difference in least squares mean viral load change vs placebo ([2]; 400 mg, Day 3): −0.094 log10 copies/ml | Change from baseline in SARS-CoV-2 viral load, least squares mean ([2]; 400 mg, Day 5): −1.754 log10 copies/ml | Difference in least squares mean viral load change vs placebo ([2]; 400 mg, Day 5): −0.434 log10 copies/ml | Change from baseline in SARS-CoV-2 viral load, least squares mean ([2]; 400 mg, Day 7): −2.263 log10 copies/ml | Difference in least squares mean viral load change vs placebo ([2]; 400 mg, Day 7): −0.311 log10 copies/ml | Change from baseline in SARS-CoV-2 viral load, least squares mean ([2]; 400 mg, Day 14): −2.840 log10 copies/ml | Difference in least squares mean viral load change vs placebo ([2]; 400 mg, Day 14): 0.026 log10 copies/ml | Median time to response (SARS-CoV-2 viral RNA negativity) ([2]; 800 mg twice daily 5 days): 14 days and 14.0 days | Change from baseline in SARS-CoV-2 viral load, least squares mean ([2]; 800 mg, Day 3): −1.050 log10 copies/ml | Difference in least squares mean viral load change vs placebo ([2]; 800 mg, Day 3): −0.203 log10 copies/ml | Change from baseline in SARS-CoV-2 viral load, least squares mean ([2]; 800 mg, Day 5): −1.867 log10 copies/ml | Difference in least squares mean viral load change vs placebo ([2]; 800 mg, Day 5): −0.547 log10 copies/ml | Change from baseline in SARS-CoV-2 viral load, least squares mean ([2]; 800 mg, Day 7): −2.485 log10 copies/ml | Difference in least squares mean viral load change vs placebo ([2]; 800 mg, Day 7): −0.534 log10 copies/ml | Change from baseline in SARS-CoV-2 viral load, least squares mean ([2]; 800 mg, Day 14): −3.040 log10 copies/ml | Difference in least squares mean viral load change vs placebo ([2]; 800 mg, Day 14): −0.175 log10 copies/ml | Median time to clearance of viral RNA ([2]; 800 mg, participants seronegative at baseline (sensitivity analysis)): 14 days | Percentage of participants positive for infectious SARS-CoV-2 virus ([3]; 200 mg twice daily 5 days, Day 1): (50.0) % | Percentage of participants positive for infectious SARS-CoV-2 virus ([3]; 200 mg twice daily 5 days, Day 3): (18.2) % | Percentage of participants positive for infectious SARS-CoV-2 virus ([3]; 200 mg twice daily 5 days, Day 5): (4.5) % | Percentage of participants positive for infectious SARS-CoV-2 virus ([3]; 400 mg twice daily 5 days, Day 1): (41.9) % | Percentage of participants positive for infectious SARS-CoV-2 virus ([3]; 400 mg twice daily 5 days, Day 3): (11.6) % | Percentage of participants positive for infectious SARS-CoV-2 virus ([3]; 800 mg twice daily 5 days, Day 1): (38.5) % | WHO Clinical Progression Scale, participants in score category 0 ([4]; Baseline): (0.0) % | WHO Clinical Progression Scale, participants in score category 1-3 ([4]; Baseline): (100.0) % | WHO Clinical Progression Scale, participants in score category 4-5 ([4]; Baseline): (0.0) % | WHO Clinical Progression Scale, participants in score category 6-9 ([4]; Baseline): (0.0) % | WHO Clinical Progression Scale, participants in score category 10 ([4]; Baseline): (0.0) % | WHO Clinical Progression Scale, participants in score category 0 ([4]; Day 3): (0.3) % | WHO Clinical Progression Scale, participants in score category 1-3 ([4]; Day 3): (97.7) % | WHO Clinical Progression Scale, participants in score category 4-5 ([4]; Day 3): (1.6) % | WHO Clinical Progression Scale, participants in score category 6-9 ([4]; Day 3): (0.4) % | WHO Clinical Progression Scale, participants in score category 10 ([4]; Day 3): (0.0) % | WHO Clinical Progression Scale, participants in score category 0 ([4]; Day 5): (1.6) % | WHO Clinical Progression Scale, participants in score category 1-3 ([4]; Day 5): (95.1) % | WHO Clinical Progression Scale, participants in score category 4-5 ([4]; Day 5): (2.4) % | WHO Clinical Progression Scale, participants in score category 6-9 ([4]; Day 5): (0.9) % | WHO Clinical Progression Scale, participants in score category 10 ([4]; Day 5): (0.0) % | WHO Clinical Progression Scale, participants in score category 0 ([4]; Day 10): (5.9) % | WHO Clinical Progression Scale, participants in score category 1-3 ([4]; Day 10): (89.0) % | WHO Clinical Progression Scale, participants in score category 4-5 ([4]; Day 10): (4.0) % | WHO Clinical Progression Scale, participants in score category 6-9 ([4]; Day 10): (1.0) % | WHO Clinical Progression Scale, participants in score category 10 ([4]; Day 10): (0.0) % | WHO Clinical Progression Scale, participants in score category 0 ([4]; Day 15): (15.2) %
